Data from publication PMC5764437, “Discovery of novel, orally bioavailable, antileishmanial compounds using phenotypic screening” (PLoS Neglected Tropical Diseases, 2017).
≈ marks a conversion by molar mass, not a printed value. Read-outs that look alike come from different tables or passages of the source.

Experiments:
[1] = test system: L. mexicana intracellular amastigotes; assay: Growth inhibition of intracellular amastigotes in J774A.1 macrophages (Renilla luciferase luminescence); type: cell-based; details: Leishmania mexicana, J774.A1; intracellular amastigotes in J774A.1 macrophages; mean ± standard deviation, n = 2; read-out: L. mexicana EC50
Description: (§1) L. mexicana (MNYZ/BZ/62/M379) or L. donovani (LdBob strain) parasites expressing the Renilla luciferase gene from a rRNA gene locus were used to infect J774A.1 macrophages. Growth of intracellular amastigotes was measured using a luminescence assay, as detailed previously. The growth inhibitor activities of compounds were tested against bloodstream form Lister 427 T. brucei in 96-well plates containing 1 X 10^5 parasites per well in 0.2 ml HMI-11 medium (Gibco/Thermo Fisher). Compounds (2 μl volumes in DMSO) were added to the parasites using serial 3-fold dilutions to cover a range of concentrations from about 10 μM to 1 nM. After 48 h incubation at 37°C under a humidified 5% CO2 atmosphere, 10 μl of 10% Triton X-100 and 100 X stock SYBR Green I (Sigma-Aldrich) in PBS was added and florescence measured (excitation 497 nm; emission 520 nm) after 1 h incubation in the dark using a Spectra Max Gemini XPS fluorimeter (Molecular Devices). Data were log transformed and EC50 values were determined using GraphPad Prism 6 (GraphPad Software). In the absence of growth inhibiting compounds, the parasites grew from an initial density of 5 X 10^5 cells/mL to ~3 X 10^6 cells/mL.
[…]. These were chosen as candidates for further study. From these 230 compounds, we were able to repurchase 113 from commercial vendors. These compounds were characterized for purity by ultra-performance liquid chromatography using ultraviolet spectroscopy and evaporative light scattering detection and identity by mass spectrometry. All validated compounds were profiled for activity against intracellular amastigotes, the disease-causing stage of the life cycle. Intracellular amastigote activity was determined using a strain of L. mexicana in which the Renilla luciferase gene was integrated into the rRNA locus, allowing robust expression for measuring amastigote growth within cultured macrophages. All 113 compounds were applied at 1 μM concentration for 96 h to J774A.1 macrophages infected with L. mexicana luciferase-expressing parasites. […].
Next, we generated dose-response curves for these 55 compounds against intracellular amastigotes and independently against J774A.1 macrophages to establish the relative potency of each compound against the pathogen and its host cell. […]. The nine remaining compounds, each representing a unique chemical scaffold (compounds 1–9, Fig 3), were designated top hits (Fig 1).

J774A.1 macrophages = assay: Cytotoxicity to J774A.1 macrophages (dose-response); type: cell-based; details: Mus musculus, J774.A1; host macrophage; tested up to 10 μM; mean ± standard deviation, n = 2; read-out: J774A.1 EC50
Description: Cytotoxicity of compounds to J774.A1 macrophages was determined by dose-response curves as described previously. In the absence of growth inhibitors or DMSO, the macrophages increased in number ~6-fold over 96 h in Minimum Essential Medium, employed for both macrophage infections and the toxicity assays.

[2] = test system: bloodstream form Lister 427 T. brucei; assay: Growth inhibition of T. brucei bloodstream forms (SYBR Green I); type: cell-based; details: bloodstream form, mean ± standard deviation, n = 2, read-out: T. brucei EC50
Description: as §1

[3] = test system: Trypanosoma cruzi CL Brener epimastigotes; assay: Growth inhibition of Trypanosoma cruzi epimastigotes (SYBR Green); type: cell-based; details: Trypanosoma cruzi; 72 h, 10 μM to 1 nM; read-out: T. cruzi epimastigotes EC50
Description: Trypanosoma cruzi CL Brener epimastigotes were obtained from Dr. Fred Buckner of the Department of Medicine at the University of Washington. T. cruzi epimastigotes were grown in liver infusion tryptose medium and seeded in a 96-well plate at 10^5 epimastigotes per well in 100 μl medium. For each well, 1 μl of compound in DMSO at 100X the desired final concentration was added. Epimastigotes were exposed to a range of compound concentrations from 10 μM to 1 nM to determine EC50. Plates were incubated at 26°C for 72 h, then 10 μl 50X SYBR Green in 1% Triton X-100 was added to each well followed by incubation with shaking at room temperature for 30 minutes. Fluorescence was read (excitation 485nm, emission 535nm) with the Victor^2 multiplate reader (PerkinElmer). All data processing and visualization were performed using GraphPad Prism 6 software.

[4] = test system: L. donovani intracellular amastigotes; assay: Growth inhibition of intracellular amastigotes in J774A.1 macrophages (Renilla luciferase luminescence); type: cell-based; details: Leishmania donovani, J774.A1; intracellular amastigotes in J774A.1 macrophages; mean ± standard deviation, n = 2; read-out: L. donovani EC50
Description: as §1

[5] = Liver microsomal stability, rat; details: microsomes, pH 7.4
Description: (§2) One part of 10 mM DMSO compound stock was mixed with 4 parts of acetonitrile to make 2 mM diluted compound stock in DMSO and acetonitrile. 29.1 µL diluted compound stock was added to 2.3 mL liver microsomal solution and vortexed to make microsomal solution with compound. […] For the 0 h time point, 450 µL pre-cooled (4 °C) internal standard (10 µM warfarin in methanol) was added to the first three columns before the reaction was initiated. 1.25 ml of microsome assay solution A (Fisher Scientific, #NC9255727) was combined with 0.25 ml of solution B (Fisher Scientific, #NC9016235) in 3.5 ml of potassium phosphate buffer (0.1 M, pH 7.4). 45 µL of this A+B solution was added to each well of the 96-well storage plate (reaction plate). Liquid in the first 3 columns was moved to another storage plate (quenched plate). The reaction plate was then sealed, incubated at 37 °C, and shaken at a speed of 60 rpm. Time points (0.5 h, 1 h, 2 h) were taken. At each time point, 450 µL pre-cooled internal standard was added to 3 rows in the reaction plate, and the liquid was then transferred to the quenched plate. […] 200 µL supernatant was transferred to a 96-well plate and analyzed by ultra-performance liquid chromatography-mass spectrometry (UPLC-MS) (Waters Inc.). The compounds and internal standard were detected by selected ion recording (SIR).

[6] = Parallel Artificial Membrane Permeability Assay (PAMPA); details: pH 7.4
Description: Parallel Artificial Membrane Permeability Assay (PAMPA) was conducted by Biomek FX lab automation workstation (Beckman Coulter, Inc.) and PAMPA evolution 96 command software (pION Inc.). A 3 µL aliquot of […] test compound stock in DMSO was mixed with 597 µL of isotonic citrate phosphate buffered saline to make diluted test compound. Diluted test compound (150 µL) was transferred to a UV plate (pION Inc.) and the UV spectrum was read as the reference plate. The membrane on a pre-loaded PAMPA sandwich (pION Inc.) was painted with 4 µL GIT lipid (pION Inc.). The acceptor chamber was then filled with 200 µL acceptor solution buffer, (pION Inc.), and the donor chamber was filled with 180 µL diluted test compound. The PAMPA sandwich was assembled, placed on the Gut-Box and stirred for 30 min. The Aqueous Boundary Layer was set to 40 µm for stirring. The UV spectrum (250-500 nm) of the donor and the acceptor solutions were recorded. The permeability coefficient was calculated using PAMPA Evolution 96 Command software (pION Inc.) based on the AUC of the reference plate, the donor plate and the acceptor plate. All compounds were tested in triplicate.

in vitro = details: pH 1
Description: Compound stocks were 10 mM in DMSO. The internal standard was 5 µM warfarin in methanol. […] 1 ml SGF was added to a 1.1 ml 96-well storage plate and mixed well with 10 µl compound stock. The plate was then incubated at 37 °C and shaken at 60 rpm. […] At each time point, 100 µl was removed to a 1 ml storage plate and 300 µl internal standard was added to quench the reaction. […] The compound was detected by SIR and quantification was based on peak area of test compound and the internal standard.

[7] = Liver microsomal stability, mouse; details: female, microsomes, pH 7.4
Description: as §2

[8] = Liver microsomal stability, human; details: both, microsomes, pH 7.4
Description: as §2

[9] = Solubility in aqueous buffer; type: physicochemical; details: pH 7.4, aqueous buffer, kinetic from dmso stock
Description: Solubility assays were carried out on a Biomek FX lab automation workstation (Beckman Coulter, Inc., Fullerton, CA) using μSOL Evolution software (pION Inc.). Compound stock (10 mM in DMSO, 10 μL) was added to 1-propanol (190 μL) to make a reference stock plate. Reference stock solution (5 μL) was mixed with 1-propanol (70 μL) and citrate phosphate buffered saline (pH 7, 75 μL) to make the reference plate which was then measured with UV detection. Test compound stock (10 mM, 6 μL) was added to citrate phosphate buffered saline (594 μL) in a 96-well storage plate and mixed. […] The suspension was then filtered through a 96-well filter plate (pION Inc.). Filtrate (75 μL) was mixed with 1-propanol (75 μL) to make the sample plate, and the UV spectrum (250 nm −500 nm) of the sample plate was recorded. Calculation of solubility was carried out using μSOL Evolution software based on the AUC of the UV spectrum of the sample plate and the reference plate. All compounds were tested in triplicate.

[10] = Caco-2 permeability assay; type: in vitro ADME; details: human, pH 7.4; for Papp A→B at 2 h, 10 μmol/L / Papp B→A at 2 h, 10 μmol/L: mean ± standard deviation of three runs; for Papp A→B at 2 h, 10 μmol/L: read-out: Caco-2 (A→B) permeability coefficient; for Papp B→A at 2 h, 10 μmol/L: read-out: Caco-2 (B→A) permeability coefficient
L. mexicana = assay: Efficacy in murine model of cutaneous leishmaniasis (footpad lesion size); type: in vivo; details: BALB/c mice infected with L. mexicana; 20 mg/kg daily oral gavage for 10 days from week 4; measured weeks 4–12
Description: Female BALB/c mice (~20 g) were injected in one hind footpad with 1 x 10^6 stationary phase promastigotes suspended in 25 μl of phosphate buffered saline (PBS). Four weeks after infection, when a small cutaneous lesion was visible in the injected footpad, cohorts of five mice were treated with either compound or vehicle alone (90 μl), delivered daily for 10 consecutive days by oral gavage using a 20-gauge x 30 mm disposable plastic feeding needle. Vehicle consisted of 10/10/40/39 mixture of ethanol/(PG)/PEG400/PBS plus 1% (weight/volume) 2HβCD (PG is propylene glycol, PEG is polyethylene glycol, 2HβCD is 2-hydroxy-β-cyclodextran). The daily dose for each compound was: compound 4, 25 mg/kg; compound 5, 30 mg/kg; miltefosine, 20 mg/kg. The width of the footpad (top to bottom) was measured with calipers before injection of parasites (day 0) and weekly from weeks 4–12. The width of the uninfected contralateral footpad was also measured each week, and its width was subtracted from that of the infected footpad to determine lesion size.

Row | Structure (SMILES) | EC50 [1] | EC50 (J774A.1 macrophages) | EC50 [3] | EC50 [4] | half-life at 20 μM [5] | half-life at 99 µM (in vitro; simulated gi fluid) | half-life at 20 μM [7] | half-life at 20 μM [8] | solubility at 18 h [9] | Papp A→B at 2 h, 10 μmol/L ([10]; Caco-2) | Papp B→A at 2 h, 10 μmol/L ([10]; Caco-2) | further results
1 | Cc1ccc(-c2cc3c(c(OCC4CCCN(C)C4)c2)OCCN(C(=O)Cc2c(C)noc2C)C3)s1 (stereo not shown) [Compound 8] | 23 ± 18 nM | 2.2 ± 1.4 µM | 330 nM | 1.1 ± 0.8 nM | – | – | – | – | – | – | – | EC50 ([2]; Trypanosoma brucei): 300 ± 80 nM; EC50 [2]: < 300 nM
2 | Oc1c(C(Nc2ccccn2)c2cccc(Cl)c2Cl)ccc2cccnc12 (stereo not shown) [Compound 9] | 100 ± 10 nM | 9 ± 6 µM | 2100 ± 70 nM | 15 ± 9 nM | – | – | – | – | – | – | – | –
3 | CCCSc1ccc2nc(NC(=O)OC)[nH]c2c1 [albendazole] | – | – | – | – | 97.2 min | > 1440 min | 42 min | > 240 min | 3.8 µM (≈ 1.01 µg/mL) | – | – | Papp at 30 min, 0.05 µM [6]: 204 ×10⁻⁶ cm/s
4 | NC(=O)N1c2ccccc2C=Cc2ccccc21 [carbamazepine] | – | – | – | – | – | – | – | – | – | 71.8 ± 1.2 ×10⁻⁶ cm/s | 56.5 ± 3.2 ×10⁻⁶ cm/s | efflux ratio at 2 h, 10 μmol/L ([10]; Caco-2, pH 7.4, Papp B→A / Papp A→B): 0.79; half-life at 20 μM ([5]; rat): > 240 min; Papp at 30 min, 0.05 µM ([6]; PAMPA): 95.6 ×10⁻⁶ cm/s; half-life at 99 µM (in vitro; simulated gastric fluid with pepsin): > 1440 min; half-life at 20 μM ([7]; mouse): > 240 min; half-life at 20 μM ([8]; human): > 240 min; solubility at 18 h ([9]; citrate phosphate buffered saline): 82.2 µM (≈ 19.4 µg/mL)
5 | C[C@H]1O[C@@H](O[C@H]2[C@@H](O)C[C@H](O[C@H]3[C@@H](O)C[C@H](O[C@H]4CC[C@@]5(C)[C@H](CC[C@@H]6[C@@H]5C[C@@H](O)[C@]5(C)[C@@H](C7=CC(=O)OC7)CC[C@]65O)C4)O[C@@H]3C)O[C@@H]2C)C[C@H](O)[C@@H]1O [digoxin] | – | – | – | – | > 240 min | > 1440 min | > 240 min | > 240 min | 80.3 µM (≈ 62.7 µg/mL) | 4.61 ± 0.46 ×10⁻⁶ cm/s | 27.1 ± 2.1 ×10⁻⁶ cm/s | efflux ratio at 2 h, 10 μmol/L ([10]; Caco-2, Papp B→A / Papp A→B): 5.87
6 | CCCCCCCCCCCCCCCCOP(=O)([O-])OCC[N+](C)(C)C [miltefosine, reference compound] | – | – | – | – | – | – | – | – | – | – | – | Cutaneous lesion size (footpad width) (L. mexicana): reduced lesion size from the initial dimension
